Test results: patent US20080312241A1, “Cicletanine and PKC inhibitors in the treatment of pulmonary and cardiac disorders” (Gilead Sciences, Inc., priority 2007, published 2008)

Columns and labels:
[1] = test system: WHO class II pulmonary hypertension patients; assay: Oral cicletanine 50 mg daily in WHO class II pulmonary hypertension patients; assay type: in vivo, human
Procedure: When dosed orally once daily at 50 mg daily, improvements in functional status as measured by improved 12 minute walking distance were observed.
Another embodiment comprises the use of 50 mg oral daily doses of racemic cicletanine for treatment of Class II Pulmonary Hypertension, resulting in improved walking distance values.

[2] = test system: Class III Pulmonary Hypertension; assay: Oral cicletanine 50 mg daily in Class III pulmonary hypertension (associated with left-sided heart failure); assay type: in vivo, human
Procedure: Yet another embodiment comprises the use of 50 mg oral daily doses of racemic cicletanine for treatment of Class III Pulmonary Hypertension, resulting in improved NYHA functional status.

[3] = test system: patient with idiopathic pulmonary arterial hypertension; assay: Human case (Example 1): oral once daily cicletanine in a patient with idiopathic pulmonary arterial hypertension (Class I); assay type: in vivo; conditions: for 6-minute walking distance: less than 30 meters immediately prior to initiation; for levels of N-terminal pro-B-type natriuretic peptide: 4409 immediately prior to therapy
Procedure: A successful clinical trial of one of the embodiments comprised use of racemic cicletanine with the dosage initiated at 50 mg daily and titrated as tolerated to 150 mg daily in a patient with Class I Pulmonary Hypertension.
A patient with idiopathic pulmonary arterial hypertension, despite having been for some time on high doses of all three classes of approved pulmonary hypertension drugs (endothelin receptor antagonist, prostacyclin, and PDE5 inhibitor), was in heart failure and deteriorating rapidly. The patient had finally been stabilized in the intensive care unit with continuously inhaled nitric oxide. Cicletanine therapy was inititiated—oral once daily, titrating from 50 mg to 150 mg/day over three days—day 1 at 50 mg, day 2 at 100 mg, day 3 and thereafter at 150 mg. Within three days from initiation of cicletanine therapy, the patient was weaned off nitric oxide and released from the intensive care unit; they were home within 5 days of initiation of cicletanine treatment. The patient has been on the cicletanine therapy for four and a half months.
The patient has manifested a significant improvement in 6-minute walking distance, which was less than 30 meters immediately prior to cicletanine initiation, and was over 200 meters after one month of cicletanine therapy and was over 400 meters from the second month of cicletanine therapy onward.
Immediately prior to cicletanine therapy the marker was at 4409; within a few days of cicletanine therapy biomarker levels had fallen to less than 2000, and have stayed near 2000 for approximately four months.
The patient, formerly bedridden, is now able to perform housework and take regular exercise.

[4] = Tolerance and systemic blood pressure effects of cicletanine in patients; assay type: in vivo, human
Procedure: We have unexpectedly found good tolerance of Cicletanine in some patient populations at doses up to 400 mg. […] This is particularly effective by use of means to reduce or modulate the magnitude of the kaliuretic, natriuretic and diuretic effects of Cicletanine. As part of aspects of the present invention, and as described below, we have also invented several means of accomplishing this objective.
In accordance of the other embodiments of the present invention, an oral therapeutic formulation is disclosed wherein sufficient cicletanine is contained to improve pulmonary hemodynamics without excessive lowering of systemic blood pressure. Excessive reduction of systemic blood pressure has been a limiting side effect in many agents potentially useful for treatment of pulmonary hypertension. […] Use of appropriate delivery or other mechanisms to optimize blood levels of individual isomers will allow even higher dosing without adverse impacts on systemic blood pressures.
In accordance with some embodiments of the present invention, an oral formulation is disclosed, comprising a therapeutically effective amount of cicletanine alone or in combination with a second agent such that the overall formulation improves pulmonary hemodynamics without inappropriately lowering systemic blood pressure. […]

[5] = test system: nitric oxide in vascular tissue; assay: Nitric oxide levels in vascular tissue
[6] = test system: human subject with heart failure; assay: Oral cicletanine 150 mg daily in a human subject with heart failure; assay type: in vivo; conditions: oral 150 mg daily
Procedure: Natriuretic peptide level, a marker of heart failure is improved by oral administration of 150 mg of Cicletanine daily to a human subject with heart failure.

[7] = 50 mg daily titrated to 150 mg daily, patient with Class I Pulmonary Hypertension

Cc1ncc2c(c1O)COC2c1ccc(Cl)cc1 (racemic) [racemic cicletanine]
walking distance values ([1]; 50 mg oral daily doses, Class II Pulmonary Hypertension): improved
NYHA functional status ([2]; 50 mg oral daily doses, Class III Pulmonary Hypertension): improved
increase in walking distance [3, 7]: more than 12 fold
natriuretic peptide serum levels [3, 7]: substantial reductions

Cc1ncc2c(c1O)COC2c1ccc(Cl)cc1 (racemic) [cicletanine]
12 minute walking distance (functional status) ([1]; oral once daily 50 mg, WHO class II patients): improved
hemodynamic and clinical change from baseline ([2]; pulmonary hypertension associated with left-sided heart failure): favorable, long-term hemodynamic and clinical improvements
6-minute walking distance ([3]; after one month of cicletanine therapy (150 mg/day oral)): over 200 meters
levels of N-terminal pro-B-type natriuretic peptide ([3]; for approximately four months of therapy): ~2000
quality of life ([3]; formerly bedridden, now able to perform housework and take regular exercise): improved significantly
6-minute walking distance ([3]; from the second month of cicletanine therapy onward): over 400 meters
time from initiation of treatment until home ([3]; titrating from 50 mg to 150 mg/day): ≤ 5 days
time from initiation of therapy until weaned off nitric oxide and released from the intensive care unit ([3]; titrating from 50 mg to 150 mg/day over three days): three
levels of N-terminal pro-B-type natriuretic peptide ([3]; within a few days of cicletanine therapy): less than 2000
systemic blood pressure ([4]; human, in vivo): tends not to lower
doses with good tolerance ([4]; some patient populations): up to 400 mg
tachyphylaxis to its own nitric oxide effects [5]: avoids tachyphylaxis
levels of nitric oxide in vascular tissue ([5]; persistent across concentrations corresponding to human doses from 1 mg daily to several thousand milligrams daily): increased levels
Natriuretic peptide level (marker of heart failure) [6]: improved

Cc1ncc2c(c1O)COC2c1ccc(Cl)cc1 (single isomer, unassigned; (-)) [(−) cicletanine]
nitric oxide enhancing effect, (−) versus (+) cicletanine ([5]; compared with (+) cicletanine): more prominent
